“Also recorded” adds a separate entry of the source.
How the values were obtained:
[1] = system: mouse embryonic stem cells; assay: Mouse ES cells grown in media with additional retinol; blue fluorescence and lipid bodies; assay type: cell-based; conditions: 20% KOSR media with retinol, 48 hours
Excerpt: The increase in fluorescence intensities is also found to be confined to the lipid bodies.

[2] = system: HuES cells; assay: HuES cells in retinol-free E8 media supplemented with retinol; fluorescent lipid bodies; assay type: cell-based, human; conditions: HuES cells cultured in E8 media (lacks retinol), retinol 10 μM added
Experimental: HuES cells cultured in E8 media show a rapid decrease in lipid bodies along with associated fluorescence in 24 hours, and the lipid bodies are completely absent by 72 hours (FIG. 10). […] A possible reason could be the differential expression of proteins involved in retinoid uptake and metabolism between the two states/cell types.

[3] = system: HPSCs; assay: Supplementing HPSC culture media with retinyl palmitate or retinol; blue fluorescence of lipid bodies; assay type: cell-based, human
Excerpt: All non-confocal epifluorescence images are obtained with a Nikon Eclipse TE2000-E-PFS (Japan) microscope with a Photometrix Cascade II 512 EM-CCD camera (Roper Scientific, USA) and Image Pro-Plus AMS software (Media Cybernetics, USA). The Nikon objectives used are 60×/NA1.4 oil immersions and 10×/NA 0.3 for all experiments. Fluorescence is visualized using band pass filters (Chroma Technology, USA). The filters used are Blue (Exciter—350 nm/50, Dichoric—400 nm long pass, Emitter—460 nm/50), Green (Exciter—500 nm/20, Dichoric—535 nm/30, Emitter—515 long pass) and Red (Exciter—450 nm/30, Dichoric—620 nm/0, Emitter—570 long pass). Confocal images are acquired using a Zeiss LSM 510 Meta Confocal set up with a 63× objective and a 405 laser (excitation—405 nm, emission—about 420 nm to about 490 nm). […] For quantitative analysis and depiction of images for direct comparison, for e.g. between mouse ES cells and human ES cells, all the images presented have the same intensity scale bounded by the adjusted maximum value of the HuES cell image. Scatter plot and linear fit analyses of pluripotency marker expression (OCT4, SOX2 and Nanog) and blue fluorescence is performed with fluorescence intensity values of individual pixels using the ‘plot profile’ application from ImageJ. […] The increase in fluorescence intensities is also found to be confined to the lipid bodies.

Row | SMILES | retinoid-associated (blue) fluorescence [1] | fluorescent lipid bodies after addition to E8 cultures [2] | blue fluorescence in the HPSCs emanating from the lipid bodies ([3]; culture media supplemented with retinol) | mean blue fluorescence intensity in the lipid bodies ([3]; HPSCs on MEF feeder cells, typical media with 20% KOSR, supplemented at 2-10 μM, after 24 hours)
1 | CC1=C(/C=C/C(C)=C/C=C/C(C)=C/CO)C(C)(C)CCC1 [retinol] | practically no increase; also recorded: do not show any increase in blue fluorescence | re-appearance of fluorescent lipid bodies; also recorded: regain blue fluorescent lipid bodies in 48 hours | dose-dependent increase | –
2 | CCCCCCCCCCCCCCCC(=O)OC/C=C(C)/C=C/C=C(C)/C=C/C1=C(C)CCCC1(C)C [retinyl palmitate] | – | – | – | dose-dependent saturable increase; also recorded: dose dependent increase in blue fluorescence

From US9933367B2, “Method to identify and isolate pluripotent stem cells using endogenous blue fluorescence” (NATIONAL CENTRE FOR BIOLOGICAL SCIENCES, priority 2012, dated 2018)
